The values that follow are results of earlier work, collected in patent US20250375395A1 (priority 2016, published 2025).

What is called pKa is the pH at which an ionisable group is half protonated.

For the data set the following is noted: carbonic acid/sodium bicarbonate.

Take `O=C([O-])O.[Na+]` [sodium bicarbonate]: the pKa was 6.4.
